Test results as given in the RepoRT retention time repository.

Test: Agilent ZORBAX 300 SB-C18, 150 × 1 mm, 3.5 µm; A: water + 0.01% heptafluorobutyric acid; B: acetonitrile + 0.01% heptafluorobutyric acid; gradient (min/%B) 0/0 100/90
Conditions: stereoisomer not certain
For `CC1(C)CC(=O)C=C(NCC2NCCc3ccccc32)C1` (configuration not stated), the LC retention time was 8.52 min.
Work on `c1ccc(C2=Nc3ccccc3Oc3ccccc32)cc1` yielded an LC retention time of 18.1 min.
In the case of `Nc1ccncn1`, the LC retention time is reported as 3.44 min.
`COc1ccccc1OCCN1CCNCC1` gave an LC retention time of 8.16 min.
In the case of `Nc1cccnc1N`, the LC retention time is reported as 6.18 min.
`O=C(C(Cc1ccccc1)n1cccc1)N1CCCC1` (configuration not stated) gave an LC retention time of 13.8 min.
Work on `Cc1ccc(-c2ccccc2)nc1C` yielded an LC retention time of 8.93 min.
With `C#CC(C)(C)NC(=O)CCCCCN1C(=O)c2ccccc2C1=O` the LC retention time was 12.2 min.
`c1csc(-c2cnc3ccccc3n2)c1` showed an LC retention time of 14.3 min.
`COc1ccc(N2C(=O)C=CC2=O)cc1` showed an LC retention time of 9.62 min.
Molecule `Cc1ccc(C=Cc2nnc(-c3ccccc3C)o2)cc1` has an LC retention time of 18.1 min.
`CN1CCN(C(=O)c2nn(C)c(=O)c3ccccc23)CC1` gave an LC retention time of 7.52 min.
`CCOC(=O)c1c(C)n(C2CCCCC2)c2ccc(OC(C)=O)cc12` gave an LC retention time of 17.8 min.
In the case of `CCN(CC)CCCC(C)N` (configuration not stated), the LC retention time is reported as 7.05 min.
For `CC(C)NCCCNC(C)C`, the LC retention time was 7.27 min.
In the case of `O=c1[nH][nH]c(=O)n1-c1ccc2c(c1)OCO2`, the LC retention time is reported as 6.9 min.
`CCn1c(C)c(C(C)=O)c(C(C)=O)c1C` showed an LC retention time of 9.56 min.
`NC(=O)CCCc1c[nH]c2ccccc12` showed an LC retention time of 9.42 min.
With `S=c1[nH]c2ccccc2c2c1CCC2` the LC retention time was 12.1 min.
Work on `Cc1ccc(NC(=O)C(=O)NCCN2CCN(C(=O)c3ccccc3)CC2)cc1` yielded an LC retention time of 9.8 min.
`Cc1ccccn1` showed an LC retention time of 6.01 min.
`CN(C)c1cccc(C(=O)O)c1` gave an LC retention time of 8.69 min.
Molecule `S=C(NCc1ccccc1)NCc1ccc2[nH]c3c(c2c1)CCCC3` has an LC retention time of 15.4 min.
`Nc1cc(-c2ccc(C(=O)c3ccccc3)c(N)c2)ccc1C(=O)c1ccccc1` gave an LC retention time of 16.4 min.
In the case of `Cc1[nH]c2ccccc2c1Cc1nc2ccccc2[nH]1`, the LC retention time is reported as 9.93 min.
`COc1cc2ccccc2cc1CNc1ccccc1` showed an LC retention time of 15.7 min.
For `CCCOC(C)n1cccc1-c1ccccc1` (configuration not stated), the LC retention time was 18 min.
`Nc1cccc(CO)c1` gave an LC retention time of 6.28 min.
With `CCCCN(C)CCCC` the LC retention time was 8.6 min.
Molecule `Cn1c2c(c(=O)n(C)c1=O)C(CC(=O)O)C(=O)N2` (configuration not stated) has an LC retention time of 6.06 min.
`O=C(C=Cc1ccccc1)c1ccc(O)cc1O` gave an LC retention time of 14.3 min.
With `O=C1CCC=C1CSc1ccccc1` the LC retention time was 13.1 min.
`NC(=O)C1CCN(C(=O)c2ccco2)CC1` showed an LC retention time of 6.85 min.
In the case of `Cc1cc(C)cc(NC(=O)c2cc(-c3ccccc3)nc3ccccc23)c1`, the LC retention time is reported as 17.9 min.
`c1ccc(Cc2nc3ccccc3[nH]2)cc1` gave an LC retention time of 9.23 min.
`Cc1cccc(-c2nc(=S)[nH][nH]2)c1` gave an LC retention time of 9.33 min.
Molecule `CC(C)(C)c1ccc(C(=O)NCc2ccccc2)o1` has an LC retention time of 14.8 min.
`Nc1c2ccccc2nc2ccccc12` gave an LC retention time of 8.38 min.
For `CC(=O)C(C)(C)N`, the LC retention time was 5.58 min.
In the case of `COC(C)C(N)=O` (configuration not stated), the LC retention time is reported as 2.9 min.
Molecule `Cc1c(C(=O)N(C)c2ccccc2)oc2ccccc12` has an LC retention time of 15.3 min.
`CC(C)c1ccccc1NC(=O)c1cc2ccccc2o1` gave an LC retention time of 15.9 min.
`NCCOc1ccc2ccccc2c1` showed an LC retention time of 9.22 min.
`N=C(N)c1ccc(N)cc1` showed an LC retention time of 6.62 min.
In the case of `O=C1CCC(=O)N1c1ccc(S(=O)(=O)O)cc1`, the LC retention time is reported as 1.56 min.
For `Nc1ccc(C=C(C(=O)O)c2ccccc2)cc1`, the LC retention time was 9.96 min.
For `Cc1[nH]c2ccccc2c1CCNC(=O)C1CCCN1C(=O)Nc1ccccc1` (configuration not stated), the LC retention time was 12 min.
`C=CCC1(C(C)CCC)C(=O)NC(=O)NC1=O` (configuration not stated) gave an LC retention time of 11.4 min.
In the case of `O=S(=O)(O)CCNC1CCCCC1`, the LC retention time is reported as 5.78 min.
In the case of `C=Cc1ccc(CN(C)C)cc1`, the LC retention time is reported as 8.6 min.
With `C1CCNCC1` the LC retention time was 6.6 min.
`O=C(O)CNC(=O)Nc1ccccc1` gave an LC retention time of 7.74 min.
`CCCN` showed an LC retention time of 4.83 min.
Work on `CC1Cc2ccccc2N1` (configuration not stated) yielded an LC retention time of 7.66 min.
`C=CCN1CCC23c4c5ccc(O)c4OC2C(=O)CCC3(O)C1C5` (configuration not stated) gave an LC retention time of 8.17 min.
Molecule `CC1(C)CC(NCC(=O)OC2CCCCC2)CC(C)(C)N1` has an LC retention time of 8.55 min.
`Cc1cncc(C)n1` showed an LC retention time of 7.44 min.
With `Cc1cc(C)nc(Nc2ccccc2C)n1` the LC retention time was 10.7 min.
With `Cc1cc2n(n1)c1cc(C)nn1c1cc(C)nn21` the LC retention time was 11.1 min.
`CN(C)CCCN(C)C` showed an LC retention time of 7.19 min.
Work on `CNCCOc1ccccc1` yielded an LC retention time of 8.08 min.
`CC1CCc2[nH]c3ccccc3c2C1` (configuration not stated) gave an LC retention time of 16.9 min.
For `Cc1ccc2cc(C)c(NCc3cccnc3)nc2c1`, the LC retention time was 8.55 min.
With `CCCCNCCCC` the LC retention time was 8.38 min.
With `CN(C)C(=O)Nc1ccccc1` the LC retention time was 8.37 min.
`Cc1ccc(C)n1-c1ccccc1C(=O)O` gave an LC retention time of 12.1 min.
In the case of `CC(C)CC(C)N` (configuration not stated), the LC retention time is reported as 7.77 min.
`Cc1cc(C)nc(SCc2nc3ccccc3nc2C)n1` showed an LC retention time of 13.2 min.
Work on `Cc1ccc(CCC(=O)O)cc1N` yielded an LC retention time of 7.58 min.
With `CC(C)c1ccc(-c2cc(-c3ccccc3)c3c(ccc4ncccc43)n2)cc1` the LC retention time was 20.4 min.
With `O=c1c2n[nH]nc2cnn1-c1ccccc1` the LC retention time was 8.76 min.
With `Cc1ccc2cccc(SC(c3ccccc3)c3ccccc3)c2n1` the LC retention time was 17.5 min.
For `CCCCNC(=O)c1c[nH]c2ccccc2c1=O`, the LC retention time was 12.9 min.
Work on `CCN(CC)c1cc(C)c2ccccc2n1` yielded an LC retention time of 9.54 min.
Work on `CC(=O)C(C)(C)C(C)=NN=C(N)c1ccc(C)cc1` yielded an LC retention time of 9.26 min.
`CCCCCC(N)=O` gave an LC retention time of 8.31 min.
With `O=C1NC(=O)C(c2ccccc2)(c2ccc(O)cc2)N1` (configuration not stated) the LC retention time was 9.15 min.
Molecule `COc1cc(CCN)cc(OC)c1OC` has an LC retention time of 8.22 min.
In the case of `c1ccc2c(-n3ccnc3)nccc2c1`, the LC retention time is reported as 8.37 min.
`CC1CNCC(C)N1` (configuration not stated) gave an LC retention time of 6.7 min.
Work on `CCn1c2ccccc2c2cc(N)ccc21` yielded an LC retention time of 9.76 min.
In the case of `CC(C)=CCN1CC2(C)c3cc(O)ccc3CC1C2C` (configuration not stated), the LC retention time is reported as 10.3 min.
Work on `COc1cccc(OC)c1C(=O)C=Cc1ccccc1` yielded an LC retention time of 14.7 min.
`COc1ccc(CCN2C(=O)C(C)C(Cc3ccc(C)cc3)C2=O)cc1OC` (configuration not stated) gave an LC retention time of 15.9 min.
`CN(c1ccccc1)c1nc(-n2ccnc2)nc(-n2ccnc2)n1` gave an LC retention time of 11.3 min.
In the case of `CC=CC(=O)CC`, the LC retention time is reported as 9.41 min.
In the case of `Nc1ccccc1CO`, the LC retention time is reported as 6.62 min.
`Cc1ccc(C=C2CN(C)CC(=Cc3ccc(C)cc3)C2=O)cc1` showed an LC retention time of 12.3 min.
For `C#CCN(CCCC)CCCC`, the LC retention time was 9.04 min.
`NC(=O)c1ccc(NC(=S)Nc2ccccc2)cc1` gave an LC retention time of 9.25 min.
For `Cc1ccccc1NCC(=O)Nc1c(C)cccc1C`, the LC retention time was 13.8 min.
In the case of `CN1CCOC(c2ccccc2)c2ccccc2C1` (configuration not stated), the LC retention time is reported as 10.1 min.
With `NCCCc1ccccn1` the LC retention time was 6.8 min.
For `C=CC1CN2CCC1CC2C(O)c1ccnc2ccccc12` (configuration not stated), the LC retention time was 8.84 min.
With `CCCC(=O)Nc1cccc(C(=O)Nc2ccc(C(=O)O)cc2)c1` the LC retention time was 10.5 min.
With `CNC(=S)Nc1ccc2c(c1)CCCC2` the LC retention time was 12.5 min.
With `Nc1ccnc2ccccc12` the LC retention time was 7.32 min.
